Blank lines part the entries; values can stand above or below the compound they belong to.
Legend:
[1] = molecular target: T1, Tyrosine-protein phosphatase non-receptor type 11 (Homo sapiens, UniProt Q06124); test: Allosteric Inhibition of H2N-LN(pY)IDLDLV(dPEG8)LST(pY)ASINFQKASINFQK-amide-activated SHP2 (unknown origin) using DiFMUP as substrate pretreated with enzyme for 1 hr followed by substrate addition and measured after 20 mins by fluorescence based analysis
T1 sequence (Q06124 whole entry): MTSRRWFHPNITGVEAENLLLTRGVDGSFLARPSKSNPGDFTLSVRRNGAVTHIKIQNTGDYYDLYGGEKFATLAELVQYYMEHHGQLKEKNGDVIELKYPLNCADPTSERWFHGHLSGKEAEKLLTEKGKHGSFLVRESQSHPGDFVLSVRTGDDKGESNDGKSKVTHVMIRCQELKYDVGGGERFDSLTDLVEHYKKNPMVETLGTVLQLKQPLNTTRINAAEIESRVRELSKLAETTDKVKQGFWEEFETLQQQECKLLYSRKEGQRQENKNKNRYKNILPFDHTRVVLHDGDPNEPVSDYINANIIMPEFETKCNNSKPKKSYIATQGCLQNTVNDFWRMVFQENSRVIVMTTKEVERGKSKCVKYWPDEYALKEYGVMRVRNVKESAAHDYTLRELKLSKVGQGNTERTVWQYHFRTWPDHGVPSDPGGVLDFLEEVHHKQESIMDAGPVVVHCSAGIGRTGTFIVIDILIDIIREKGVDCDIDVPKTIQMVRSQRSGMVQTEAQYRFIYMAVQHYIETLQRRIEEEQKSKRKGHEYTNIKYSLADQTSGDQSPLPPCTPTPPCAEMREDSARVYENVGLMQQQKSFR

[2] = tested on: MIA PaCa-2; test: Induction of apoptosis in human MIA PaCa-2 cells assessed as proportion of necrotic cells at 2.5 uM incubated for 72 hrs by AnnexinV-FITC/PI staining based flow cytometry (reference value: 0.19%); format: functional
[3] = molecular target: T1, Tyrosine-protein phosphatase non-receptor type 11; test: Inhibition of SHP2 PTP domain (unknown origin) using DiFMUP as substrate pretreated with enzyme for 20 mins followed by substrate addition and measured for 2 hrs by fluorescence based analysis
[4] = Half life in ICR mouse at 1 mg/kg, iv measured for 24 hrs by LC-MS/MS analysis; format: ADME, organism-based; conditions: in vivo
[5] = tested on: MIA PaCa-2; test: Induction of apoptosis in human MIA PaCa-2 cells assessed as proportion of viable cells at 2.5 uM incubated for 72 hrs by AnnexinV-FITC/PI staining based flow cytometry (reference value: 98.19%); format: functional
[6] = Clearance in ICR mouse at 1 mg/kg, iv measured for 24 hrs by LC-MS/MS analysis; format: ADME, organism-based; conditions: in vivo
[7] = Oral bioavailability in ICR mouse at 10 mg/kg measured for 24 hrs by LC-MS/MS analysis; format: ADME, organism-based; conditions: in vivo
[8] = tested on: MIA PaCa-2; test: Induction of apoptosis in human MIA PaCa-2 cells assessed as proportion of necrotic cells at 5 uM incubated for 72 hrs by AnnexinV-FITC/PI staining based flow cytometry (reference value: 0.19%); format: functional
[9] = tested on: MIA PaCa-2; test: Induction of apoptosis in human MIA PaCa-2 cells assessed as proportion of viable cells at 10 uM incubated for 72 hrs by AnnexinV-FITC/PI staining based flow cytometry (reference value: 98.19%); format: functional
[10] = Volume of distribution in ICR mouse at 1 mg/kg, iv measured for 24 hrs by LC-MS/MS analysis; format: ADME, organism-based; conditions: in vivo
[11] = tested on: MIA PaCa-2; test: Induction of apoptosis in human MIA PaCa-2 cells assessed as proportion of viable cells at 5 uM incubated for 72 hrs by AnnexinV-FITC/PI staining based flow cytometry (reference value: 98.19%); format: functional
[12] = tested on: MIA PaCa-2; test: Induction of apoptosis in human MIA PaCa-2 cells assessed as proportion of early apoptotic cells at 5 uM incubated for 72 hrs by AnnexinV-FITC/PI staining based flow cytometry (reference value: 0.26%); format: functional
[13] = Half life in ICR mouse at 10 mg/kg, po measured for 24 hrs by LC-MS/MS analysis; format: ADME, organism-based; conditions: in vivo
[14] = tested on: MIA PaCa-2; test: Induction of apoptosis in human MIA PaCa-2 cells assessed as proportion of early apoptotic cells at 2.5 uM incubated for 72 hrs by AnnexinV-FITC/PI staining based flow cytometry (reference value: 0.26%); format: functional
[15] = AUC in ICR mouse at 1 mg/kg, iv measured for 24 hrs by LC-MS/MS analysis; format: ADME, organism-based; design: time 24 hrs, dose 1 mg/kg, route iv; conditions: in vivo
[16] = tested on: KYSE-520 cell line; test: Antiproliferative activity against human KYSE-520 cells assessed as inhibition of cell growth incubated for 72 hrs by CellTiter-LumiII Luminescent assay; format: functional, cell-based; conditions: KYSE-520, 72 h
[17] = Toxicity against BALB/c nude mouse xenografted with human MIA PaCa-2 cells assessed as animal's death at 20 to 40 mg/kg, po administered daily for 17 days; format: organism-based; conditions: in vivo, 408 h, dose 20-40 mg/kg, time 17 day
[18] = tested on: MIA PaCa-2; test: Induction of apoptosis in human MIA PaCa-2 cells assessed as proportion of early apoptotic cells at 10 uM incubated for 72 hrs by AnnexinV-FITC/PI staining based flow cytometry (reference value: 0.26%); format: functional
[19] = tested on: MIA PaCa-2; test: Induction of apoptosis in human MIA PaCa-2 cells assessed as proportion of late apoptotic cells at 10 uM incubated for 72 hrs by AnnexinV-FITC/PI staining based flow cytometry (reference value: 1.36%); format: functional
[20] = AUC in ICR mouse at 10 mg/kg, po measured for 24 hrs by LC-MS/MS analysis; format: ADME, organism-based; design: dose 10 mg/kg, time 24 hrs, route po; conditions: in vivo
[21] = Cmax in ICR mouse at 10 mg/kg, po measured for 24 hrs by LC-MS/MS analysis; format: ADME, organism-based; design: time 24 hrs, dose 10 mg/kg, route po; conditions: in vivo
[22] = tested on: RAW264.7; test: Cytotoxicity against mouse RAW264.7 cells assessed as cell viability at 10 to 30 uM incubated for 72 hrs by CellTiter-LumiII Luminescent assay; format: toxicity, cell-based; conditions: raw264.7, 72 h, dose 10-30 µM
[23] = tested on: MIA PaCa-2; test: Induction of apoptosis in human MIA PaCa-2 cells assessed as proportion of late apoptotic cells at 2.5 uM incubated for 72 hrs by AnnexinV-FITC/PI staining based flow cytometry (reference value: 1.36%); format: functional
[24] = molecular target: Tyrosine-protein phosphatase non-receptor type 6 (Homo sapiens, UniProt P29350); test: Inhibition of SHP1 (unknown origin) using DiFMUP as substrate pretreated with enzyme for 20 mins followed by substrate addition and measured for 2 hrs by fluorescence based analysis
[25] = tested on: MIA PaCa-2; test: Antiproliferative activity against human MIA PaCa-2 cells harboring KRASG12C mutant assessed as inhibition of cell growth incubated for 72 hrs by CellTiter-LumiII Luminescent assay; format: functional, cell-based; conditions: MIA PaCa-2, 72 h
[26] = tested on: MIA PaCa-2; test: Induction of apoptosis in human MIA PaCa-2 cells assessed as proportion of necrotic cells at 10 uM incubated for 72 hrs by AnnexinV-FITC/PI staining based flow cytometry (reference value: 0.19%); format: functional
[27] = Hepatotoxicity in ICR mouse assessed as increase in plasma AST level at 100 mg/kg, po administered once every 2 days and measured on day 14; format: toxicity, organism-based; conditions: in vivo, 336 h, time 14 day
[28] = Tmax in ICR mouse at 10 mg/kg, po measured for 24 hrs by LC-MS/MS analysis; format: ADME, organism-based; conditions: in vivo
[29] = Hepatotoxicity in ICR mouse assessed as increase in plasma ALP level at 100 mg/kg, po administered once every 2 days and measured on day 14; format: toxicity, organism-based; conditions: in vivo, 336 h, time 14 day
[30] = tested on: MIA PaCa-2; test: Antitumor activity against human MIA PaCa-2 cells xenografted in BALB/c nude mouse assessed as inhibition of tumor growth at 40 mg/kg, po administered daily for 17 days; format: functional; conditions: time 17 day
[31] = Hepatotoxicity in ICR mouse assessed as increase in plasma ALT level at 100 mg/kg, po administered once every 2 days and measured on day 14; format: toxicity, organism-based; conditions: in vivo, 336 h, time 14 day
[32] = tested on: MIA PaCa-2; test: Induction of apoptosis in human MIA PaCa-2 cells assessed as proportion of late apoptotic cells at 5 uM incubated for 72 hrs by AnnexinV-FITC/PI staining based flow cytometry (reference value: 1.36%); format: functional
[33] = Toxicity against BALB/c nude mouse xenografted with human MIA PaCa-2 cells assessed as effect on body weight at 20 to 40 mg/kg, po administered daily for 17 days; format: organism-based; conditions: in vivo, 408 h, dose 20-40 mg/kg, time 17 day

Chain of Tyrosine-protein phosphatase non-receptor type 6 (P29350 whole entry): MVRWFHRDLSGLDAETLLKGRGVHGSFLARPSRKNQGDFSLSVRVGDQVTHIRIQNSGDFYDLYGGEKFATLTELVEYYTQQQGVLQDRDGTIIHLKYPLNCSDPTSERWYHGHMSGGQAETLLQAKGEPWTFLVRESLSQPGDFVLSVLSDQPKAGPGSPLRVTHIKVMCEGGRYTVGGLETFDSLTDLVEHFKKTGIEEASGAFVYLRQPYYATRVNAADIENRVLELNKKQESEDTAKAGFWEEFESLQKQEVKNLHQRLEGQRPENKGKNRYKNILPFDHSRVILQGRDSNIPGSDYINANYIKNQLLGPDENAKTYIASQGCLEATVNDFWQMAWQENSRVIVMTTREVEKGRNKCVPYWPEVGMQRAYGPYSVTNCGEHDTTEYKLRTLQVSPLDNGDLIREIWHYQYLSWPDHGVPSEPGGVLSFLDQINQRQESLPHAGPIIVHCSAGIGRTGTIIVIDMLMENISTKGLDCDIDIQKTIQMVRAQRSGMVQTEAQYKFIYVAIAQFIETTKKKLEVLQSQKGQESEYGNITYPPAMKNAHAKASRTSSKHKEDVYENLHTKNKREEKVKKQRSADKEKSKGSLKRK

SMILES: COc1cccc(/N=C(\N)N2CCN(c3cnc(-c4cccc(Cl)c4Cl)c(N)n3)CC2)c1
- IC50 [1]: 30.4 nM

SMILES: N/C(=N\c1ccc(F)cc1)N1CCN(c2cnc(-c3cccc(Cl)c3Cl)c(N)n2)CC1
- IC50 [1]: 53.3 nM

SMILES: Nc1nc(N2CCN(S(N)(=O)=O)CC2)cnc1-c1cccc(Cl)c1Cl
- IC50 [1]: 3400 nM

SMILES: COc1cc(/N=C(\N)N2CCN(c3cnc(-c4cccc(Cl)c4Cl)c(N)n3)CC2)ccc1C#N
- Activity [2]: 0.21%
- IC50 [3]: > 30000 nM
- half-life [4]: 1.9 h
- Activity [5]: 88.63%
- clearance [6]: 52.2 mL/min/kg
- bioavailability [7]: 66.3%
- Activity [8]: 0.15%
- Activity [9]: 63.59%
- Vd [10]: 8.4 L/kg
- Activity [11]: 79.83%
- Activity [12]: 7.47%
- half-life [13]: 2 h
- Activity [14]: 4.98%
- AUC at 24 h [15]: 0.651 µM·h
- IC50 [16]: 1800 nM
- Activity [17]: Non-Toxic
- Activity [18]: 12.54%
- IC50 [1]: 17.7 nM
- Activity [19]: 23.65%
- AUC at 24 h [20]: 4.32 µM·h
- Cmax [21]: 1090 nM
- Activity [22]: Non-Toxic
- Activity [23]: 6.18%
- IC50 [24]: > 30000 nM
- IC50 [25]: 6800 nM
- Activity [26]: 0.22%
- Activity [27]: Non-Toxic
- Tmax [28]: 0.8 h
- Activity [29]: Non-Toxic
- inhibition (INH) [30]: 48%
- Activity [31]: Non-Toxic
- Activity [32]: 12.55%
- Activity [33]: Non-Toxic

SMILES: N#Cc1ccc(/N=C(\N)N2CCN(c3cnc(-c4cccc(Cl)c4Cl)c(N)n3)CC2)cn1
- IC50 [1]: 74.2 nM

SMILES: N/C(=N\c1cccnc1)N1CCN(c2cnc(-c3cccc(Cl)c3Cl)c(N)n2)CC1
- IC50 [1]: 142 nM

More lines, in order of falling IC50 [1], values ahead:

- IC50 [1]: 3760 nM
SMILES: N#Cc1ccc(/N=C(\N)N2CCN(c3cnc(-c4cccc(Cl)c4Cl)cn3)CC2)cc1

- IC50 [1]: 3210 nM
SMILES: CNC(=O)c1ccc(/N=C(\N)N2CCN(c3cnc(-c4cccc(Cl)c4Cl)c(N)n3)CC2)cc1

- IC50 [1]: 1150 nM
SMILES: NC(=S)N1CCN(c2cnc(-c3cccc(Cl)c3Cl)c(N)n2)CC1

- IC50 [1]: 414 nM
SMILES: N=C(N)N1CCN(c2cnc(-c3cccc(Cl)c3Cl)c(N)n2)CC1

- IC50 [1]: 210 nM
SMILES: N/C(=N\c1cncnc1)N1CCN(c2cnc(-c3cccc(Cl)c3Cl)c(N)n2)CC1

- IC50 [1]: 112 nM
SMILES: COc1ccccc1/N=C(\N)N1CCN(c2cnc(-c3cccc(Cl)c3Cl)c(N)n2)CC1

- IC50 [1]: 92.2 nM
SMILES: N/C(=N\c1ccc(C(F)(F)F)cc1)N1CCN(c2cnc(-c3cccc(Cl)c3Cl)c(N)n2)CC1

- IC50 [1]: 64.5 nM
SMILES: N/C(=N\c1ccncc1)N1CCN(c2cnc(-c3cccc(Cl)c3Cl)c(N)n2)CC1

- IC50 [1]: 48.1 nM
SMILES: N/C(=N\c1ccsc1)N1CCN(c2cnc(-c3cccc(Cl)c3Cl)c(N)n2)CC1
